IC50, EC50 and AC50 data for seven compounds are collected here from ChEMBL document CHEMBL1201862, “PubChem BioAssay data set” (2004).

Activity calls are given as the source filed them.

In experiment [1] the target is Matrix metalloproteinase-14 (Homo sapiens, UniProt P50281). The experiment is described as follows: Dose Response confirmation of uHTS hits for a small molecule inhibitors of MT1-MMP activation in a fluorescence assay set 1. The format is functional.
Another experiment relates to Streptococcus. The experiment is described as follows: Group A Streptococcus viability loss, dose response, counter-screen for streptokinase expression inhibitor project, luminescence, BacTiterGlo (AID 1915).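 Also: potency for reduction of bacterial viability or growth.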 In kind it is functional, organism-based.
The subject of experiment [2] is Streptococcus sp. 'group A'. The experiment is described as follows: growth inhibition of control SK(-) GAS strain, dose response, counter-screen for streptokinase expression inhibitor project, luminescence, kanamycin, BacTiterGlo, confirmation (AID 1900). In kind it is functional, organism-based. (In general: Counterscreens check selectivity or assay interference.)

The target in the next experiment is T1, Streptokinase A (Streptococcus pyogenes serotype M1, UniProt P10520).
T1 sequence (P10520 whole entry): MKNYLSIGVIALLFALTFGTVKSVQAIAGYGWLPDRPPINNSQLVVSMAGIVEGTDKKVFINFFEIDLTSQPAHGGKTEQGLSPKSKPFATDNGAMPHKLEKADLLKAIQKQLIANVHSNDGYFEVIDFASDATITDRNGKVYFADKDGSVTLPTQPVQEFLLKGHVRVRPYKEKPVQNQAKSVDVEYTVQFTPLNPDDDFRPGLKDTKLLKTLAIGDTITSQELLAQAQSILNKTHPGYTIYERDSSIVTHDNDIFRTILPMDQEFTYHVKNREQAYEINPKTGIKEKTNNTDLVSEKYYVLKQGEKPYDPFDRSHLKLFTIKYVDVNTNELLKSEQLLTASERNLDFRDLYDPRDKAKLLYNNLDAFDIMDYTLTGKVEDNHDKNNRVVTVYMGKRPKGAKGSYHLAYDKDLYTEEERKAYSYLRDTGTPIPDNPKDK
The experiment is described as follows: S. pyogenes streptokinase expression inhibitors, potency, dose response, plasminogen activation absorbance, OD405 (AID 1914).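 Also: secreted streptokinase activity via plasminogen activation per viability signal from cell pellet.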 The format is functional, Streptococcus pyogenes M1 GAS.

In experiment [3] the target is Botulinum neurotoxin type F (Clostridium botulinum, UniProt P30996). The experiment is described as follows: High-throughput multiplex microsphere dose response for inhibitors of toxin protease, specifically Botulinum neurotoxin light chain F protease, compounds from Cherry Pick 02. Conditions: read-out: EC50_MICROM. In kind it is functional.
Botulinum neurotoxin type F, sequence (P30996 1-436 limits assumed): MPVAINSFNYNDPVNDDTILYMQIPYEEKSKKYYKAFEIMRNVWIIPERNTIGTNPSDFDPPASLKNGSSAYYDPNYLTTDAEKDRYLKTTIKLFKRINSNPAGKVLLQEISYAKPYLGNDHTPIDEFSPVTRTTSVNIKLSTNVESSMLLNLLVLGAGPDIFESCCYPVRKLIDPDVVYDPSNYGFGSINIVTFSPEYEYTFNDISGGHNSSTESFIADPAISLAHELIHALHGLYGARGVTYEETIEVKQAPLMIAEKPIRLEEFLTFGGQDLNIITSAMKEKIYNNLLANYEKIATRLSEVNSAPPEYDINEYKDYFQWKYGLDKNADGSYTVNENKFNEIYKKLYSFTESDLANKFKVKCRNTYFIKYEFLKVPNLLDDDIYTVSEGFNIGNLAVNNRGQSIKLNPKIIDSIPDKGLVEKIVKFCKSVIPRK
Experiment [4] can be described thus: AlphaScreen signal interference compounds, dose response, artefact control for ARNT-TACC3 interaction inhibitor project, biochemical, luminescence, cherry-pick (AID 651705).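 Also: AlphaScreen bead proximity signal that flags compounds interfering with the detection technology; potency reflects signal decrease which marks the compound as an assay artifact.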 The format is functional. Background: Alpha assays give light when donor and acceptor beads are brought close together.
A short description of experiment [5]: cytotoxicity toward NIH3T3 fibroblasts, dose response, counter-screen, cell-based, ATP luminescence, mouse fibroblasts (AID 2010).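 Also: cells exposed to compound for about 90 hours before reading.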 In kind it is functional.
The target in another experiment is T2, Caspase-6 (Homo sapiens, UniProt P55212).
T2 sequence (P55212 whole entry): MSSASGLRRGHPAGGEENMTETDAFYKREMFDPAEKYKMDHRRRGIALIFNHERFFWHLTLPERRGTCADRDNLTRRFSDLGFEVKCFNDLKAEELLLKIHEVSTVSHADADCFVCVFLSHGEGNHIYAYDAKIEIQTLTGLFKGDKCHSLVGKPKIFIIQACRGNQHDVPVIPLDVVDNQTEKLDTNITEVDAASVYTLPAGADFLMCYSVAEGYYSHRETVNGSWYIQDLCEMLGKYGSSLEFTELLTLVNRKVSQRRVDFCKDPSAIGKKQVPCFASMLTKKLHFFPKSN
The experiment is described as follows: human caspase-6 inhibitors, dose response, biochemical, VEID-R110 fluorescence, cherry-pick (AID 720632).

A short description of experiment [6]: inhibitors of intracellular T. cruzi replication, confirmation, NIH3T3 host cells, beta-gal luminescence (AID 2044).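 Also: intracellular parasites grown in NIH/3T3 mouse fibroblasts as host cells; luminescent beta-galactosidase reporter signal from transgenic T. cruzi replicating inside host cells; inhibitors lower the luminescence signal.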 In kind it is functional, cell-based.
Experiment [7] in a line: ARNT/TACC3 interaction disruptors, potency, confirmation, biochemical, AlphaScreen, cherry-picked samples (AID 651703).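 Also: His-tagged ARNT PAS-B domain paired with GST-TACC3 E629A dimer coactivator fragment; potency of inhibitors that break up the complex and lower AlphaScreen signal.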 In kind it is functional, Homo sapiens.
Experiment [8] concerns the target T3, Carboxy-terminal domain RNA polymerase II polypeptide A small phosphatase 1 (Homo sapiens, UniProt Q9GZU7).
T3 sequence (Q9GZU7 whole entry): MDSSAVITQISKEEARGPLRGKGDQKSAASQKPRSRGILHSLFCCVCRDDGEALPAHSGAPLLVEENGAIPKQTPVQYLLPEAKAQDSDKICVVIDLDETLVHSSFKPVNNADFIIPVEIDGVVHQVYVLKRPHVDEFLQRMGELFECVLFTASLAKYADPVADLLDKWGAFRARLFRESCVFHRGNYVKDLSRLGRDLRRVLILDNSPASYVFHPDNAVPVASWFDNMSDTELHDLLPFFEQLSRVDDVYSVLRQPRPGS
The experiment is described as follows: inhibitors of CTDSP1, concentration-response testing, biochemical assay, absorbance-based, actives from ultra-high-throughput screening (AID 540297). In kind it is functional.

Experiment [9] addresses Botulinum neurotoxin type A (Clostridium botulinum (strain Hall / ATCC 3502 / NCTC 13319 / Type A), UniProt P0DPI1). The experiment is described as follows: High-throughput multiplex microsphere dose response for inhibitors of toxin protease, specifically Botulinum neurotoxin light chain A protease, compounds from Powder Set 01. The format is functional, Clostridium botulinum A str. ATCC 3502. As to conditions: read-out: EC50_MICROM.

For the next experiment, the target named is Lethal factor (Bacillus anthracis, UniProt P15917). The experiment is described as follows: High-throughput multiplex microsphere dose response for inhibitors of toxin protease, specifically Lethal Factor protease, compounds from Powder Set 01. Conditions: read-out: EC50_MICROM. In kind it is functional, Bacillus anthracis str. A2012.
Lethal factor, sequence (P15917 whole entry): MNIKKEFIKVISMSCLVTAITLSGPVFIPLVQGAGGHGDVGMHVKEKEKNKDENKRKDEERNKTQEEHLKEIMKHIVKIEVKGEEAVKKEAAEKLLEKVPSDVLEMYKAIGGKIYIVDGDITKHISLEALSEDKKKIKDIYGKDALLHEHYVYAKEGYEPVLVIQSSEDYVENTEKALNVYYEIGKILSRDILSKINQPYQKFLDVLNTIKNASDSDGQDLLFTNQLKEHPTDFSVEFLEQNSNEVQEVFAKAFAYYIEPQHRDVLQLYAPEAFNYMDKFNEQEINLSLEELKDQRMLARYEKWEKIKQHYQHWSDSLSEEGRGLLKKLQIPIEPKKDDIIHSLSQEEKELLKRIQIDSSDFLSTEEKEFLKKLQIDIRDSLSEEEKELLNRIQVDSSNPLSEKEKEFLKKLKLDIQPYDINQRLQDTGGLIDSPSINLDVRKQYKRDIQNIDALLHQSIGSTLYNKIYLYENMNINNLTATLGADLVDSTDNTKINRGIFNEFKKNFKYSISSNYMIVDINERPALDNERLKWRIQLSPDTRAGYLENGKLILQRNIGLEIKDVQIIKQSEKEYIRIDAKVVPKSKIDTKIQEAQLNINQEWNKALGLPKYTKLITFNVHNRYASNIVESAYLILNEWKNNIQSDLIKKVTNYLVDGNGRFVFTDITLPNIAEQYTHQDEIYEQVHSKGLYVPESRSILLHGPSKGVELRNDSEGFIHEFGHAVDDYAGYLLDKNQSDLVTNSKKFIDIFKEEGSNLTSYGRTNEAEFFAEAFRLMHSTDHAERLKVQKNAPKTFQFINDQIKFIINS
The target in experiment [10] is Potassium voltage-gated channel subfamily KQT member 2 (Rattus norvegicus, UniProt O88943). The experiment is described as follows: KCNQ2 potassium channel inhibitors, dose response, cell-based, automated electrophysiology, set II, rat KCNQ2 (AID 588637). The format is functional.
Potassium voltage-gated channel subfamily KQT member 2, sequence (O88943 whole entry): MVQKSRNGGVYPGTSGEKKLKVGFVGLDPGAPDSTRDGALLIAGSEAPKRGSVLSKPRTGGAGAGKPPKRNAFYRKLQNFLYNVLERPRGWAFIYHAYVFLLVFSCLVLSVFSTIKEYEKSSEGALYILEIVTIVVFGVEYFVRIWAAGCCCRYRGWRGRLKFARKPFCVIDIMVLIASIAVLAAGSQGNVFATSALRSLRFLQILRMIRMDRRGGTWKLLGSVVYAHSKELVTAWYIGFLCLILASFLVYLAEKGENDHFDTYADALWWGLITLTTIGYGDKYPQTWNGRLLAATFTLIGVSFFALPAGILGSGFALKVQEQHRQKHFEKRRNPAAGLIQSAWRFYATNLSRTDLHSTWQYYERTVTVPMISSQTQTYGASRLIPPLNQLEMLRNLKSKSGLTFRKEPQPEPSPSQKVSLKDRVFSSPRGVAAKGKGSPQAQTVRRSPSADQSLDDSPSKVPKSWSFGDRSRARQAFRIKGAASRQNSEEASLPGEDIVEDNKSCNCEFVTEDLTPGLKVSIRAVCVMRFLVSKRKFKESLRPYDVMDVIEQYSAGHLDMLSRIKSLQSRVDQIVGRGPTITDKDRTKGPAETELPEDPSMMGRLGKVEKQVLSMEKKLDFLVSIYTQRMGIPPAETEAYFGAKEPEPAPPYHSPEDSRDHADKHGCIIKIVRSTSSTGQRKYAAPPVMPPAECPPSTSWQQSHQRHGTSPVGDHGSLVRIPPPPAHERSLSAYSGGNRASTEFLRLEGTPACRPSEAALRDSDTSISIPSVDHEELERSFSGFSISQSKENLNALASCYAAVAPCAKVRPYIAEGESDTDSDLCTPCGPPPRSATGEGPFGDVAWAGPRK
A short description of experiment [11]: CRF-BP/CRF-R2 complex antagonists, dose response, cell-based, uHTS hits, 384-well (AID 651639). In kind it is functional, Homo sapiens. Conditions: read-out: IC50_Mean.
The next experiment addresses Beta-galactosidase (Escherichia coli, UniProt Q8VNN2). Briefly: Dose response counterscreen for EBI2 assay utilizing the enzyme, b-galactosidase. In kind it is functional.

Beta-galactosidase, sequence (Q8VNN2 whole entry): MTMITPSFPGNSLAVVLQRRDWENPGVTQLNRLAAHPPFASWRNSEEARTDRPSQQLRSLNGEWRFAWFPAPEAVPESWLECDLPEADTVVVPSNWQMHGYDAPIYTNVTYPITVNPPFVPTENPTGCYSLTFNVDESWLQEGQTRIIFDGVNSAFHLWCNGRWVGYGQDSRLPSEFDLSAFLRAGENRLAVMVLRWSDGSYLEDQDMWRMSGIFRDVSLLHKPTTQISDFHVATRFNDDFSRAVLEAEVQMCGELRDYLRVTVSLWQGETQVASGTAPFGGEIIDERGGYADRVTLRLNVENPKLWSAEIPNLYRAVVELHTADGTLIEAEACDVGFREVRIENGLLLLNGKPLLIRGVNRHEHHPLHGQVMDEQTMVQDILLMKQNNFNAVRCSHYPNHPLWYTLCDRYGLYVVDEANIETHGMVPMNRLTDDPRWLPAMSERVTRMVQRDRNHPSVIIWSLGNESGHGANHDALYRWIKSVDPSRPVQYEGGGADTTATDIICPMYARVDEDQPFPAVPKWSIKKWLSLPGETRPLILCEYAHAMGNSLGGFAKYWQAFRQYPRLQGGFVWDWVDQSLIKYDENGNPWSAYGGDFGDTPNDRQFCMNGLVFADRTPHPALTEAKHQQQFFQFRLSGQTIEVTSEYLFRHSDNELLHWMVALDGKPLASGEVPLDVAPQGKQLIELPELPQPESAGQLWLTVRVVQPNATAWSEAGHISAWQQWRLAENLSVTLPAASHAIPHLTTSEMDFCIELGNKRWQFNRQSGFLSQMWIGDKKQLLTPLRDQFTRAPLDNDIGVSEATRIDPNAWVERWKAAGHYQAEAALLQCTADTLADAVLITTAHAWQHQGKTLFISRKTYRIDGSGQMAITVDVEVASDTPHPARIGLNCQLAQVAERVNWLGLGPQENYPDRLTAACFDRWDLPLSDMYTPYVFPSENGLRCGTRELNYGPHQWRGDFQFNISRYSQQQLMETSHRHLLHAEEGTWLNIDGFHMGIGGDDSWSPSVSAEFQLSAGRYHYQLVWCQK
Botulinum neurotoxin type A, sequence (P0DPI1 2-448 limits assumed): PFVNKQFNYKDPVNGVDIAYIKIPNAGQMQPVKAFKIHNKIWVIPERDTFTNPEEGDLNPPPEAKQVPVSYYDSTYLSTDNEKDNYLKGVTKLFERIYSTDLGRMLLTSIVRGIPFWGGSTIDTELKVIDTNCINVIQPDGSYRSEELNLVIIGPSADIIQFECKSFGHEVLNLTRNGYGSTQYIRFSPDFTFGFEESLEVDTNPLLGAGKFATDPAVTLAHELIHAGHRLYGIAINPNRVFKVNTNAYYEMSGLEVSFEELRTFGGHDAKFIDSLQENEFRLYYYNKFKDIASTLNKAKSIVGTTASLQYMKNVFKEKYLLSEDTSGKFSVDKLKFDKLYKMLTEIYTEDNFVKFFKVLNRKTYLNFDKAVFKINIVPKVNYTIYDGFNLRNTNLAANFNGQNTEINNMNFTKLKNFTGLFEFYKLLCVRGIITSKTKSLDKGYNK

As to `N#CC(C#N)=NNc1ccc([N+](=O)[O-])cc1`, in experiment [1], the IC50 is 32.3 µM (inactive). The EC50 with Streptococcus was 9.99 µM (active); in [2] it was 3.82 µM (active); on Streptokinase A, > 150 µM (not active).
For the compound `Cc1cc2nc(-c3cccc(Br)c3)c(Cc3cccc(Cl)c3)n2c(C)c1Br`, the EC50 in experiment [3] was > 20 µM (inactive).
As a reminder, the AC50 is the concentration giving half of the maximal activity seen. As for `COc1ccc(CC(=O)Nc2ncc([N+](=O)[O-])s2)cc1OC`, the AC50 is 117 µM (active) in [4], 2.89 µM (active) at Caspase-6 and 112 µM (active) in experiment [7]. Besides, the EC50 in [5] is > 60 µM (not active); in experiment [6], 1.27 µM (active). Further, the IC50 in experiment [8] is 3.21 µM (active).
Regarding `COc1ccc(-c2cn3nc(-c4ccccc4)c(-c4ccccc4)nc3n2)cc1`, the results for the EC50 (in [9]; on Lethal factor) were 4 µM (active) and 3.3 µM (active), respectively.
In the case of `O=C(CN1C(=O)C(c2ccccc2)Oc2cccnc21)NCc1ccccc1F` (stereo unspecified), in experiment [10], the IC50 was 1.81 µM (active).
For `Cc1sc2nc(CN(Cc3cccs3)C(=O)NC3CCCCC3)nc(O)c2c1C`, in [11], the IC50 is 19.7 µM (active).
As to `O=C(/C=C/c1ccc(Cl)cc1)N1CCN(Cc2ccccc2)CC1`, the IC50 on Beta-galactosidase was > 80 µM (inactive).
